The series in a line: passive permeability, PAMPA, ADME assay (AID 1508612). Conditions: pH 7.4, 30.0 min, 50.0 µM. In general terms: The PAMPA barrier holds no transporters, so it reflects passive diffusion.

A word on the Papp: it is a coefficient for how fast a substance crosses the barrier. Low readings indicate poor permeation, high ones ready permeation. As to `CCOc1ccc(S(=O)(=O)NCc2cccnc2)cc1NC(=O)c1ccccc1F`, the Papp was 990 nm/s.

`Cc1ccc(S(=O)(=O)Nc2ccccc2C(=O)Nc2nc(-c3ccccc3)co2)cc1` registered an apparent permeability coefficient (Papp) of 3580 nm/s.

Compound `COC(=O)c1ccc2c(c1)nc1n2[C@@H](CNC(C)=O)COC1` gave an apparent permeability coefficient (Papp) of 44.5 nm/s.

For the compound `Cc1ccc(S(=O)(=O)Nc2cnccc2C(=O)Nc2nc(-c3cc(Br)cs3)cs2)cc1`, the Papp was 91 nm/s.

In turn, `Cc1cn2nc(-c3nc(C4CCCN(C(=O)c5ccccc5)C4)no3)cc2c(=O)[nH]1` (stereo unspecified) yielded an apparent permeability coefficient (Papp) of 1360 nm/s.

The compound `COc1cccc(-c2csc(NC(=O)c3ccncc3NS(=O)(=O)c3ccc(C)cc3)n2)c1` came in with a Papp of more than 10000 nm/s.

The compound `O=C(O)c1ccnc2cc(-c3nc4ccccc4n3CCN3CCCCC3)sc12` came in with a Papp of 40 nm/s.

As for `CN(Cc1ccccc1)C(=O)C1CCN(Cc2cccc3ccccc23)CC1`, the apparent permeability coefficient (Papp) was more than 10000 nm/s.

Turning to `COc1ccc(-c2ccc3nc(-c4ccccc4C)oc3c2)c(OC)c1OC`, the apparent permeability (Papp) is less than 10 nm/s.

The compound `CC(C)c1c(-c2ccccc2)nc2c(C#N)c[nH]n2c1=O` showed a Papp of 99.1 nm/s.

On to `CN(C)CCOc1ccc(C(=C(CCCl)c2ccccc2)c2ccccc2)cc1`, for which the apparent permeability coefficient (Papp) was less than 10 nm/s.

The compound `CC[C@H]1CN2CCC3CC(OC)C(OC)CC3[C@@H]2C[C@@H]1C[C@H]1NCCC2=C1CC(OC)=C(O)C2` (stereo partly specified) returned a Papp of 1530 nm/s.

As to `NC1CCN(c2nc(-c3ccc(Br)cc3)cs2)CC1`, the Papp is more than 10000 nm/s.

Turning to `COc1ccc(C2c3c(oc4ccc(Cl)cc4c3=O)C(=O)N2CCCN(C)C)cc1OC` (stereo unspecified), the apparent permeability (Papp) was 2350 nm/s.

Turning to `Fc1cnc(-c2ccccc2C(F)F)nc1NCc1ccc(-n2ccnn2)cc1`, the Papp was more than 10000 nm/s.

Regarding `COC1C(OC(=O)c2ccc(C)[nH]2)C(O)C(Oc2ccc3c(O)c(NC(=O)c4ccc(O)c(CC=C(C)C)c4)c(=O)oc3c2Cl)OC1(C)C` (stereo unspecified), the Papp came to 70.4 nm/s.

`COc1ccc(NC(=O)c2cccnc2)cc1S(=O)(=O)Nc1ccc(Br)cc1`: the Papp was determined as 5140 nm/s.

In turn, `NCC(=O)Nc1cccc(-c2nn3c(=O)cc(N4CCNCC4)nc3s2)c1` yielded a Papp of less than 10 nm/s.

`CCOC(=O)c1c[nH]c2c3c(ccc2c1=O)CCCC3` returned a Papp of 4340 nm/s.

Compound `O=C(Nc1cccc(C(F)(F)F)c1)c1ccccc1NC(=O)C1CCCCC1` had an apparent permeability (Papp) of less than 10 nm/s.

In the case of `Cc1ccc(C)c(NC2=C(c3ccc(C(F)(F)F)cc3)C(=O)c3ccccc32)c1`, the apparent permeability (Papp) was less than 10 nm/s.

`Cc1ccc(S(=O)(=O)n2cc(C(=O)Nc3nc(-c4ccccc4)cs3)c3ccccc32)cc1` gave a Papp of 34 nm/s.

`Cc1cc(C)c(CNC(=O)c2nc(-c3cccc(CO)c3)cc3c2ccn3C)c(=O)[nH]1` gave an apparent permeability coefficient (Papp) of more than 10000 nm/s.

For `COCCNC(=O)[C@H]1C[C@H](Oc2ccccc2)CN1Cc1ccc2[nH]ccc2c1`, the apparent permeability (Papp) turned out to be 9610 nm/s.

Consider `O=C(Nc1ccc([S+](=O)([O-])Nc2nccs2)cc1)c1ccccn1`, for which the Papp is 30 nm/s.

Turning to `COc1ccc(-n2cnc3cc(C(=O)N4CCCCC4)ccc32)cc1`, the Papp is 6240 nm/s.

For the compound `O=C1Nc2ccccc2C1Cc1cc(Cl)c(O)c(Cl)c1` (stereo unspecified), the Papp was 88 nm/s.

Regarding `COc1ccc(S(=O)(=O)N(CC(=O)Nc2ccc(C)cc2)c2ccc(C)cc2)cc1OC`, the apparent permeability coefficient (Papp) is more than 10000 nm/s.

As for `CCN1CCCC1CNC(=O)c1cc(S(=O)(=O)CC)c(N)cc1OC` (stereo unspecified), the apparent permeability coefficient (Papp) was less than 10 nm/s.

For `O=c1[nH]c(C2CCN(CC3CCCCC3)CC2)nn1Cc1ccccc1`, the Papp was less than 10 nm/s.

The compound `COc1cc(-c2nc(Nc3ccc(F)c(F)c3)c3ccccc3n2)ccn1` came in with a Papp of 225 nm/s.

`CN(C)c1cccc(-c2nccc(N3CCC(C(N)=O)CC3)n2)c1` came in with an apparent permeability coefficient (Papp) of 2870 nm/s.

Compound `OC1(c2ccc(Cl)cc2)CCN(Cc2c[nH]c3ccccc23)CC1` gave a Papp of more than 10000 nm/s.

The compound `CN(C)CC(=O)NC1CCCc2c1cnn2-c1ccc(F)cc1F` (stereo unspecified) registered an apparent permeability coefficient (Papp) of 4120 nm/s.

`Cc1ccc(S(=O)(=O)Nc2cc(F)ccc2C(=O)Nc2nc(-c3ccccc3)cs2)cc1` came in with a Papp of 2440 nm/s.

`Cc1cc(-c2nnc3n2CCCCC3)c(C)n1-c1ccc([N+](=O)[O-])cc1` displayed a Papp of 208 nm/s.

The compound `Cc1noc(C)c1CN1CCNc2cc(Nc3ccccc3)ncc2C1` showed an apparent permeability coefficient (Papp) of 9780 nm/s.

Consider `COc1ccc(S(=O)(=O)N2CCN(C(=O)C3COc4ccccc4O3)CC2)cc1` (stereo unspecified), for which the Papp is more than 10000 nm/s.

`CNc1oc(-c2cccc(-c3ccccc3)c2)nc1C#N`: the apparent permeability coefficient (Papp) turned out to be 9180 nm/s.

For the compound `Cc1cc(C)c2nc(-c3ccccn3)cc(C(=O)Nc3ccc(S(=O)(=O)Nc4onc(C)c4C)cc3)c2c1`, the Papp came out at 2400 nm/s.

In the case of `Cc1c(NC2=C(Cl)C(=O)N(c3ccccc3)C2=O)c(=O)n(-c2ccccc2)n1C`, the apparent permeability coefficient (Papp) was 1230 nm/s.

`COc1cccc(-n2nc(C(=O)O)cc2-c2ccc(C3CCCCC3)c(Cl)c2)c1` returned an apparent permeability (Papp) of more than 10000 nm/s.

With `Cc1ccnc(NC(=S)N2CCN(c3ccc(Cl)c(Cl)c3)CC2)c1`, the Papp is more than 10000 nm/s.

Turning to `CCOC(=O)c1[nH]c(C)c(CCC(=O)N2CCN(c3cccc(C)c3C)CC2)c1C`, the Papp is more than 10000 nm/s.

As for `CCn1cc(C(=O)N2CCN(c3cccc(Cl)c3)CC2)c2cc(OC)c(OC)cc2c1=O`, the apparent permeability coefficient (Papp) was found to be 8330 nm/s.

Take `N#Cc1cccc(-c2csc(N3CCC(C(N)=O)CC3)n2)c1`: the Papp was found to be 4500 nm/s.

For the origin of these results see PubChem BioAssay AID1508612.
